Tests used:
Assay type in all cases: in vivo
[1] = test system: ovine sepsis induced by intravenous infusion of live E. coli; assay: Vitamin C dose response in ovine sepsis (Example 3)
Procedure: The inventors then sought to determine the minimum dose of intravenous vitamin C required to reverse the pathophysiological features of sepsis and acute kidney injury, using the ovine sepsis model described in Example 1. Surgical procedures and initiation of gram negative sepsis were as described in Example 1.
At 24 hours of sepsis, sheep were randomised into one of four groups (n=2 each): (i) sodium ascorbate treatment at 1 g/kg for 7 hours; (ii) sodium ascorbate treatment at 2 g/kg for 7 hours; (iii) sodium ascorbate treatment at 3 g/kg for 7 hours; or (iv) fluid-matched vehicle. Norepinephrine doses were titrated to achieve a target blood pressure (75-80 mm Hg). All sodium ascorbate doses were given as a bolus followed by a continuous infusion. The bolus doses for the 1, 2 and […] treatments were, respectively, 0.133, 0.267 and 0.4 g/kg (5.3, 10.7 and 16 g for a 40 kg sheep. Sodium ascorbate was diluted in 1:1 ratio with 5% glucose prior to intravenous administration. At 31 hours of sepsis, animals were euthanised for tissue collection to facilitate molecular and histological investigations.

[2] = test system: septic human patient with severe COVID-19; assay: Mega-dose sodium ascorbate in one septic patient with severe COVID-19 (Example 2)
From the text: FIG. 6. Changes in systemic hemodynamics and renal function in response to mega-dose sodium ascorbate (Na Asc) treatment in one septic human patient with a severe case of COVID-19 disease 2019 (n=1). Norepinephrine dose (A), arterial blood oxygen tension (PO2) (filled squares) and inspired oxygen fraction (open circles) (B), mean arterial pressure (C), serum creatinine (D), heart rate (E), and urine output (F) are presented at pre-treatment (time 0), after a 30-min infusion of Na Asc bolus therapy (BT, 30 g), and then at hourly intervals during an infusion of Na Asc for 6.5 hr (4.6 g/hr).
A person was admitted to ICU with severe COVID-19 disease. The patient presented with acute respiratory distress syndrome (ARDS), vasodilatory shock and acute kidney injury, with a temperature of 40° C. The patient was intubated and placed on a ventilator. At noon, their urinary output was 10 ml/hr.
The patient (weighing approximately 80 kg) was administered 30 g of intravenous sodium ascorbate over 30 minutes beginning at 1 pm, followed by an infusion of 30 g sodium ascorbate over the next 6 hours.

[3] = test system: patients with septic shock; assay: Randomised, double-blind, placebo-controlled trial of mega-dose vitamin C for septic shock (Example 4); conditions: trial ongoing
From the text: A randomised, double-blind, placebo-controlled trial is being conducted to evaluate whether the administration of intravenous mega-dose vitamin C (60 g/day) increases urine output in patients with septic shock admitted to an intensive care unit (ICU).
Patients admitted to the Austin Hospital ICU with the primary diagnosis of septic shock defined according to the Sepsis-3 criteria are screened for eligibility. All the diagnostic criteria of septic shock (based on the SEPSIS-3 criteria) were to be fulfilled simultaneously within the last 24 hours, and vasopressors infused continuously at enrolment. Definition of sepsis is that of suspected or documented infection and an acute increase of ≥2 sequential organ failure assessment (SOFA) points consequent to the infection (a proxy of organ dysfunction). Definition of septic shock are sepsis and need for vasopressor therapy to keep mean arterial pressure (MAP) >65 mmHg for >2 hours and lactate >2 mmol/L, despite adequate fluid resuscitation.
All eligible patients with septic shock are randomised to receive either: • (i) Mega-dose Vitamin C intravenous infusion (sodium ascorbate 30 grams [100 ml] diluted with 150 ml of 5% dextrose infused intravenously over 1 hour followed by sodium ascorbate 30 grams [100 ml] diluted with 150 ml of 5% dextrose infused intravenously over 5 hours); or • (ii) Placebo intravenous infusion administered once (250 ml of 5% dextrose infused intravenously over 1 hour followed by 250 ml of 5% dextrose infused intravenously over 5 hours).
The study infusions are identical in appearance and are supplied in identical 250m1 5% dextrose bags prepared by ICU staff.
Vitamin C levels and arterial blood gas samples are measured at five time points (before loading infusion; after loading dose; 3 hours after the beginning of maintenance infusion; at the end of maintenance infusion; and, 24 hours following the beginning of the study infusion). A single urinary assessment is made of oxalate crystals obtained from testing a 24-hour collection of urine obtained at 24 hours following the beginning of the study infusion. Arterial blood gas samples are also measured to monitor for changes in serum sodium (Na+) and potassium (K+) levels at four time points (before loading infusion [baseline]; after loading dose; 3 hours after the beginning of maintenance infusion; and, at the end of maintenance infusion). The study infusion is stopped if the serum Na+ levels increases >10 mEq/L from the baseline value or absolute serum Na+ levels>160 mEq/L. Information is also collected on fluid balance, intravenous fluid therapy, use of vasopressor drugs and dosage, use of mechanical ventilation and renal replacement therapy and all biochemical and hematological and blood gas analysis variables as well as patient demographics, diagnosis, vital signs and illness severity score, ICU and hospital outcomes (e.g. admission and discharge dates as well as ICU and hospital survival status).
The primary efficacy outcome for this study is the cumulative urine output for 24 consecutive hours following the beginning of the study infusion.
Data analysis is performed on an intention-to-treat basis. Summary statistics are used to describe the clinical data and presented as mean±standard deviation, median with interquartile range (IQR) or percentages as appropriate. Chi-squared analysis with Fisher's exact test (as appropriate), and Student's t-test (Mann Whitney U test for non-normal distributions) are used to compare data between the active treatment group and the control group with statistical significance declared for probability values of less than 0.05. Analysis of the outcome of excluded patients due to other trials etc. is in accordance with CONSORT guidelines.

[4] = 1, 2 and 3 g/kg sodium ascorbate compared, n=2 each
[5] = 3 g/kg sodium ascorbate for 7 hours, n=2

Question: `O=C1O[C@H]([C@@H](O)CO)C([O-])=C1O.[Na+]` [sodium ascorbate] was tested. Which “increase in urinary output” value [1, 4] did it give?
Answer: greatest in the 3 g/kg sodium ascorbate treatment group

Question: And the “normalisation of body temperature” value [1, 4]?
Answer: strongest in the 3 g/kg sodium ascorbate treatment group

Question: And the “recovery in arterial PO2” value [1, 4]?
Answer: strongest in the 3 g/kg sodium ascorbate treatment group

Question: And the “reduction in arterial blood lactate levels” value [1, 4]?
Answer: greatest in the 3 g/kg sodium ascorbate treatment group

Question: What about the norepinephrine dose requirements ([1]; 1, 2 and 3 g/kg sodium ascorbate for 7 hours, n=2 each) of the same molecule?
Answer: reduction in norepinephrine dose requirements with increased sodium ascorbate doses

Question: What about the “renal medullary oxygen levels” value [1, 5] of the same molecule?
Answer: improvement

Question: And the “vasopressor requirements for attaining target blood pressure (75-80 mm Hg)” value [1, 5]?
Answer: Total withdrawal of vasopressor requirements

Question: What about the adverse side-effects ([1]; during these pre-clinical studies) of the same molecule?
Answer: No adverse side-effects were observed

Question: And the “dose required to provide optimal benefits towards reversing the pathophysiological features of sepsis” value ([1]; intravenous, based on dose response analysis and Examples 1 and 2)?
Answer: at least 3 g/kg

Question: And the urinary output ([2]; 1st hour post initiation of treatment, 10 ml/hr prior to treatment)?
Answer: 175 mL/h

Question: What about the urinary output ([2]; 2nd hour post initiation of treatment) of the same molecule?
Answer: 160 mL/h

Question: And the urinary output ([2]; 3rd hour post initiation of treatment)?
Answer: 400 mL/h

Question: What about the urinary output ([2]; 4th hour post initiation of treatment) of the same molecule?
Answer: 180 mL/h

Question: And the urinary output ([2]; 5th hour post initiation of treatment)?
Answer: 125 mL/h

Question: What about the urinary output ([2]; 6th hour post initiation of treatment) of the same molecule?
Answer: 145 mL/h

Question: What about the “arterial blood oxygen levels” value ([2]; after 6 hours of sodium ascorbate treatment, 65 pre-treatment, FiO2:40%) of the same molecule?
Answer: 90 mm Hg

Question: What about the time to extubation ([2]; after the treatment (intensive care day 15)) of the same molecule?
Answer: 12 days

Question: What about the “time to discharge from hospital without any complications” value ([2]; after treatment) of the same molecule?
Answer: 22 days

Question: What about the lactate ([2]; during the treatment, decreased from 2.6) of the same molecule?
Answer: 1.9 mmol/L

Question: What about the FiO2 ([2]; during the treatment, dropped from 0.45, positive end-expiratory pressure 14 cm H2O) of the same molecule?
Answer: 0.30

Question: What about the heart rate ([2]; during the treatment, dropped from 130) of the same molecule?
Answer: 105 beats/min

Question: And the “time in which blood pressure normalised, vasopressor requirements reduced and renal function improved” value ([2]; human patient with COVID-19, mega dose intravenous vitamin C)?
Answer: less than six hours

Question: What about the urine flow ([2]; increase during the treatment, from 10) of the same molecule?
Answer: 400 mL/h

Question: What about the plasma creatinine ([2]; over the course of sodium ascorbate administration (30 g over 30 minutes then 30 g infusion), 118 before treatment, n=1) of the same molecule?
Answer: 84 µmol/L

Question: What about the norepinephrine infusion ([2]; over the course of sodium ascorbate administration, 8 before) of the same molecule?
Answer: 0 µg/min

Question: And the body temperature ([3]; 60 g/day iv)?
Answer: decreases

Question: What about the “oxalate excretion in the urine” value ([3]; 60 g/day iv) of the same molecule?
Answer: no evidence of increased oxalate excretion

Question: And the “requirement for vasopressor support” value ([3]; 60 g/day iv)?
Answer: decreases

Question: And the serum sodium levels ([3]; 60 g/day iv)?
Answer: no evidence of increased oxalate excretion in the urine or increases in serum sodium levels

Question: What about the urinary output ([3]; 60 g/day iv) of the same molecule?
Answer: increases

Question: What about the safety concern signal ([3]; sodium ascorbate 30 g over 1 hour then 30 g over 5 hours iv (60 g/day)) of the same molecule?
Answer: no safety concern signal
